# Measurements reported in patent publication US20050037939A1, “Bottlewash additive” (Scimed Life Systems, Inc., priority 2002, published 2005).
# Test system: mold on REF-PET bottles
# Test: Mold Remove Ability Test
# Conditions: alkaline bottlewashing environment; conditions not given
# Protocol: 1. Mold Remove Ability Test A) Compositions are prepared according to the following general formula: [table] B) Select field returned bottles with heavy mold (black). Select 4 bottles per testing sequence. C) Cut the mold samples from REF-PET bottles using a utility knife. D) Label PET/mold pieces to keep track of the source bottle and the solution in which they are tested. E) Prepare solutions using 2.8% NaOH and 1% of the bottlewashing additive unless otherwise specified. F) Preheat the solutions to 55° C. G) Immerse PET/mold samples in respective bottlewashing compositions and soaked for 15 minutes with stirring at 400 rpm. H) If the mold is removed during testing note the time of removal. I) Remove the samples from solution. If the mold was not removed, rinse the sample in tap water for 10 seconds to see if mold can be removed at this point. J) Grade the samples by a % of mold removed and average the 4 tests as well as the time required for removal (Time Removal Grade). Time Grade is defined as follows: [table] Other Grades may be in between or lower depending on total mold removal
substance,measurement,value
C6 alkyl diphenylene oxide disulfonate,cleaning / mold removal by the surfactant (general statement),superior cleaning/mold removal characteristics
